Data taken from ChEMBL document CHEMBL1201862, “PubChem BioAssay data set” (2004).
Several values for one entry are separate records, joined by “and”; a condition that tells them apart may be missing. Equal values may be shown once. Activity calls are given as the source filed them.

Legend:
Interleukin-8 [1] = biological target: T1, Interleukin-8 (Homo sapiens, UniProt P10145); assay: SAR analysis of GM-Tri-DAP induced IL-8 secretion in MCF-7/NOD1 cells - Set 2. [Related pubchem assays (depositor defined):AID1575, AID1578, AID2333]; assay type: functional, cell-based
T1 sequence (P10145 whole entry): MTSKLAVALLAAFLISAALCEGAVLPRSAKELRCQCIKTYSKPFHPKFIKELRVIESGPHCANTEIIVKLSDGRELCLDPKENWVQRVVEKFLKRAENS

Interleukin-8 [2] = biological target: T1, Interleukin-8; assay: SAR analysis of Tumor necrosis factor alpha (TNF-alpha) induced IL-8 secretion in MCF-7/NOD1 cells - Set 2. [Related pubchem assays (depositor defined):AID1575, AID2250, AID2260]; assay type: functional, cell-based
Tumor necrosis factor = Tumor necrosis factor (Homo sapiens, UniProt P01375); assay: TNFa-triggered NF-kB activation inhibitors, SAR follow-up, cell-based, revised (AID 2337); assay type: functional
Sequence of Tumor necrosis factor (P01375 whole entry): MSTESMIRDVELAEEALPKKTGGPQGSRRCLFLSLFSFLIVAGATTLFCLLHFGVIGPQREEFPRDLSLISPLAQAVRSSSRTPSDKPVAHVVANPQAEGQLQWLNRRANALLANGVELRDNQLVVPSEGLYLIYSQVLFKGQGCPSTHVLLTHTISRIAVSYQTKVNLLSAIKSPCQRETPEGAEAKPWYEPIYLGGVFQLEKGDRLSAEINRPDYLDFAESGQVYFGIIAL

[3] = biological target: Potassium voltage-gated channel subfamily KQT member 2 (Rattus norvegicus, UniProt O88943); assay: retigabine-insensitive KCNQ2 potentiators, concentration-response, dose response, cell-based, retigabine-insensitive compounds (AID 2654); assay type: functional
Sequence of Potassium voltage-gated channel subfamily KQT member 2 (O88943 whole entry): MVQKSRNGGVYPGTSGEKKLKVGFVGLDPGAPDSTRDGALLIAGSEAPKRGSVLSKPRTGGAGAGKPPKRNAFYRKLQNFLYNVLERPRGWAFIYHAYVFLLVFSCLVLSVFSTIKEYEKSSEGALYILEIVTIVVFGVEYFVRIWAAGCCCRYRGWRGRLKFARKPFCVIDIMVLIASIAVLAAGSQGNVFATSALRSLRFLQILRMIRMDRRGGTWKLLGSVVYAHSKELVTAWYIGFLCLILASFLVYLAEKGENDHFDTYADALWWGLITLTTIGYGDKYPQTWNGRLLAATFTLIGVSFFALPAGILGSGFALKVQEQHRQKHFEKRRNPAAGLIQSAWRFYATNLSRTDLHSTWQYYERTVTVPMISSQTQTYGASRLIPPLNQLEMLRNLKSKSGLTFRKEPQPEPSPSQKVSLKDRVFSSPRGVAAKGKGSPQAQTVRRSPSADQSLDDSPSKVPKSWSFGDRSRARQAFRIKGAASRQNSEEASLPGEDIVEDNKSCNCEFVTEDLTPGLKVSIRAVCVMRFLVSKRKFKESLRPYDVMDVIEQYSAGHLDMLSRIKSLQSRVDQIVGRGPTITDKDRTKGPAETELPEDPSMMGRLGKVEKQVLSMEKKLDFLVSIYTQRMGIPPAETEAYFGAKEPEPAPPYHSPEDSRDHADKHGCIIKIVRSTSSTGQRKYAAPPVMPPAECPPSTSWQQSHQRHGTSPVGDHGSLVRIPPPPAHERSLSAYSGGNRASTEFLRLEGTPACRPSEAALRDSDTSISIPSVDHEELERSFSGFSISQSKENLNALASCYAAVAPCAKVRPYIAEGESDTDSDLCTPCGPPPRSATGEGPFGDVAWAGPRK

[4] = biological target: Ras and Rab interactor 1/Tyrosine-protein kinase ABL1 (Homo sapiens, UniProt P00519+Q13671); assay type: functional;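 further: biochemical TR-FRET dose-response test measuring inhibition of binding between Rin1 and Abl proteins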
ORF 73 = ORF 73 (Human herpesvirus 8, UniProt O40947); assay: inhibitors of C-LANA binding to LBS DNA, dose response, biochemical, fluorescence polarization, cherry-picked samples (AID 504725); parameters: species or system Human gammaherpesvirus 8;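 further: fluorescence polarization of a labeled DNA duplex reporting LANA DNA binding; potency is for inhibitors that block LANA binding to the DNA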
[5] = biological target: T2, Carboxy-terminal domain RNA polymerase II polypeptide A small phosphatase 1 (Homo sapiens, UniProt Q9GZU7); assay: inhibitors of CTDSP1, concentration-response testing, biochemical assay, absorbance-based, actives from ultra-high-throughput screening (AID 540297); assay type: functional
T2 sequence (Q9GZU7 whole entry): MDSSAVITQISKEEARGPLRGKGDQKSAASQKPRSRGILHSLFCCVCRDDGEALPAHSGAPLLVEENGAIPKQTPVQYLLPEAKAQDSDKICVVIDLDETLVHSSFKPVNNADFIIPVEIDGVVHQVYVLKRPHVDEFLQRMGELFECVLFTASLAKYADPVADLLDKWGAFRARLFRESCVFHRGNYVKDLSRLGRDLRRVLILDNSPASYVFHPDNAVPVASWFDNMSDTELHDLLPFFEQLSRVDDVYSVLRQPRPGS

[6] = biological target: T3, DNA dC->dU-editing enzyme APOBEC-3A (Homo sapiens, UniProt P31941); assay: Dose Response confirmation of small molecule APOBEC3A DNA Deaminase Inhibitors via a fluorescence-based single-stranded DNA deaminase assay. [Related pubchem assays (depositor defined):AID493011, AID493024]; assay type: functional
T3 sequence (P31941 whole entry): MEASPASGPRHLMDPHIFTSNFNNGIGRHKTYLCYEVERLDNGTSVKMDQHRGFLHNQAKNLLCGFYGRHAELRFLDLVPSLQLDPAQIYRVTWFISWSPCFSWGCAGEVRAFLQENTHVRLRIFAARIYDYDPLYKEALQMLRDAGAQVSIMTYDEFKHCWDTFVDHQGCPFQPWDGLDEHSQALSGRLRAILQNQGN

[7] = biological target: Eukaryotic translation initiation factor 4H (Homo sapiens, UniProt Q15056); assay: human eIF4H binding inhibitors, primary screen, translation initiation inhibitor project, biochemical, uHTS, fluorescence polarization (AID 2012)
[8] = biological target: Polyadenylate-binding protein 1 (Homo sapiens, UniProt P11940); assay: PABP poly(A) RNA binding inhibitors, primary screen, biochemical, fluorescence polarization, uHTS (AID 2014)
[9] = biological target: T4, DNA dC->dU-editing enzyme APOBEC-3G (Homo sapiens, UniProt Q9HC16); assay type: functional
T4 sequence (Q9HC16 whole entry): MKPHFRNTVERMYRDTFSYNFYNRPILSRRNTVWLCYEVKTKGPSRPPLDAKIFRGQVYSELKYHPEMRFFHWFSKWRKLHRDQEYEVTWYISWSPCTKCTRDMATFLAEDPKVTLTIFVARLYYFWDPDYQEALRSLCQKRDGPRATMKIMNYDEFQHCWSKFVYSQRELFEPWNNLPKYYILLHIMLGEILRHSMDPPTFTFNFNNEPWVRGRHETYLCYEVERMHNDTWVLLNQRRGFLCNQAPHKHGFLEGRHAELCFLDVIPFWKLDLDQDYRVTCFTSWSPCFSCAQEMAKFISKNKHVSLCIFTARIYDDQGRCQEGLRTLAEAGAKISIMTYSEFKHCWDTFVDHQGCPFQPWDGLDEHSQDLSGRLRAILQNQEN

[10] = cytotoxicity in HPDE-C7 cells, cell-based, fluorescence, HTS (AID 430); assay type: functional; settings: Homo sapiens
[11] = cytotoxicity in KRAS-transformed pancreatic duct cells, primary screen, cell-based, fluorescence, HTS (AID 431); assay type: functional; settings: Homo sapiens;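 further: cell line used: HPDE-C7K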
[12] = biological target: G-protein coupled receptor 55 (Homo sapiens, UniProt Q9Y2T6); assay: GPR55 agonists via beta-arrestin recruitment, primary screen, imaging, U2OS cells, beta-arrestin-GFP redistribution (AID 1961); assay type: functional
[13] = biological target: Acyl-homoserine lactone acylase PvdQ (Pseudomonas aeruginosa (strain LESB58), UniProt Q9I194); assay: P. aeruginosa PvdQ acylase inhibitors, dose response, biochemical, fluorescence, plate reader and imaging, cherry-picks (AID 493231)
Cytochrome P450 2D6 = Cytochrome P450 2D6 (Homo sapiens, UniProt P10635); assay: qHTS Assay for Inhibitors and Substrates of Cytochrome P450 2D6. [Related pubchem assays: 410 ]; assay type: ADME; settings: read-out: Potency
Cytochrome P450 2C9 = Cytochrome P450 2C9 (Homo sapiens, UniProt P11712); settings: Potency
HeLa = assay: HeLa cell cytotoxicity, dose response, cytotoxicity control, 24 h, cherry-picked samples (AID 504726); assay type: functional, cell-based; settings: Homo sapiens;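 further: potency for cytotoxicity as loss of luminescence signal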
[14] = HepG2 cell cytotoxicity, dose response, cytotoxicity control for non-replicating M. tuberculosis project (AID 489018); assay type: functional; settings: Mycobacterium tuberculosis
[15] = cytotoxicity toward NIH3T3 fibroblasts, dose response, counter-screen, cell-based, ATP luminescence, mouse fibroblasts (AID 2010); assay type: functional;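 further: cells exposed to compound for about 90 hours before reading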
cells [16] = assay type: functional
[17] = system: Streptococcus sp. 'group A'; assay: growth inhibition of control SK(-) GAS strain, dose response, counter-screen for streptokinase expression inhibitor project, luminescence, kanamycin, BacTiterGlo, confirmation (AID 1900); assay type: functional, organism-based
cells [18] = assay: cells
[19] = Vero E6 cell cytotoxicity, dose response, cytotoxicity control for non-replicating M. tuberculosis project, secondary assay (AID 492998); assay type: functional, VeroE6; settings: Vero C1008
[20] = Luminescence-based dose response cell-based high throughput screening assay for cytotoxic compounds using the IEC-6 intestinal epithelial cell line. [Related pubchem assays: 1858 (Summary AID.), 1825 (Counterscreen.), 1907 (Confirmation screen.)]; assay type: functional
[21] = THP-1 cell cytotoxicity, dose response, cytotoxicity control for non-replicating M. tuberculosis project (AID 489025); assay type: functional
Streptococcus = assay: Group A Streptococcus viability loss, dose response, counter-screen for streptokinase expression inhibitor project, luminescence, BacTiterGlo (AID 1915); assay type: functional, organism-based;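 further: potency for reduction of bacterial viability or growth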
INS1 = assay: beta cell apoptosis inhibitors, cytokine rescue, dose response, luminescence, retest (AID 449756); assay type: functional, cell-based; settings: Rattus norvegicus;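 further: cell death triggered by IL-1 beta plus TNF-alpha plus IFN-gamma mixture; protective hits raise ATP signal compared with cytokine alone wells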
[22] = inhibitors of intracellular T. cruzi replication, confirmation, NIH3T3 host cells, beta-gal luminescence (AID 2044); assay type: functional, cell-based;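 further: intracellular parasites grown in NIH/3T3 mouse fibroblasts as host cells; luminescent beta-galactosidase reporter signal from transgenic T. cruzi replicating inside host cells; inhibitors lower the luminescence signal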
[23] = biological target: T4, DNA dC->dU-editing enzyme APOBEC-3G; assay: Dose Response confirmation of small molecule APOBEC3G DNA Deaminase Inhibitors via a fluorescence-based single-stranded DNA deaminase assay. [Related pubchem assays (depositor defined):AID493012, AID493028]; assay type: functional
[24] = biological target: T3, DNA dC->dU-editing enzyme APOBEC-3A; assay: APOBEC3A DNA deaminase inhibitors, dose response, biochemical (AID 504722); assay type: functional
[25] = biological target: Eukaryotic translation initiation factor 4E (Mus musculus, UniProt P63073); assay: eIF4E–eIF4G protein interaction inhibitors, dose response, biochemical, TR-FRET (AID 855); assay type: functional;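 further: potency for disrupting eIF4E binding to eIF4GI seen as loss of FRET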
Sequence of Eukaryotic translation initiation factor 4E (P63073 whole entry): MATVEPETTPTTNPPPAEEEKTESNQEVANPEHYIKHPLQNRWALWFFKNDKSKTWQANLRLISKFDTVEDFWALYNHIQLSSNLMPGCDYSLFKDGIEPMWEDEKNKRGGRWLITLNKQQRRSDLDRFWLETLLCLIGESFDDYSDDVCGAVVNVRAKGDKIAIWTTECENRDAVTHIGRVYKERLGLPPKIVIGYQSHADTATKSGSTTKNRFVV

Vasopressin V1a receptor = Vasopressin V1a receptor (Homo sapiens, UniProt P37288); assay: Counterscreen for Oxytocin Receptor (OXTR) agonists: Fluorescence-based cell-based high throughput dose response assay to identify agonists of the vasopressin 1 receptor (V1R). [Related pubchem assays: 2435 (Primary screen (OXTR agonists in singlicate)), 434991 (Counterscreen (V1R agonists in triplicate)), 2482 (Summary (OXTR agonists)) …; assay type: functional
[26] = growth suppression of PTEN-null colon cells, dose response, cell-based, HCT116 PTEN knockout (AID 1047); assay type: functional;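 further: HCT116 colon tumor cells with PTEN knocked out; cells exposed to compound for 60 hours before readout; potency for loss of cell viability measured by luminescence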
Oxytocin receptor = Oxytocin receptor (Homo sapiens, UniProt P30559); assay: Fluorescence-based cell-based high throughput dose response assay for agonists of the Oxytocin Receptor (OXTR). [Related pubchem assays: 2435 (Primary screen (OXTR agonists in singlicate)), 434991 (Counterscreen (V1R agonists in triplicate)), 2482 (Summary (OXTR agonists)), 434963 (Confirmation screen (OXTR agonists in triplicate))]; assay type: functional
[27] = biological target: T5, Voltage-gated N-type calcium channel alpha-1B subunit/Amyloid beta A4 precursor protein-binding family A member 1 (Homo sapiens, UniProt Q00975+Q02410); assay type: protein assay
T5 sequence (Q00975 whole entry): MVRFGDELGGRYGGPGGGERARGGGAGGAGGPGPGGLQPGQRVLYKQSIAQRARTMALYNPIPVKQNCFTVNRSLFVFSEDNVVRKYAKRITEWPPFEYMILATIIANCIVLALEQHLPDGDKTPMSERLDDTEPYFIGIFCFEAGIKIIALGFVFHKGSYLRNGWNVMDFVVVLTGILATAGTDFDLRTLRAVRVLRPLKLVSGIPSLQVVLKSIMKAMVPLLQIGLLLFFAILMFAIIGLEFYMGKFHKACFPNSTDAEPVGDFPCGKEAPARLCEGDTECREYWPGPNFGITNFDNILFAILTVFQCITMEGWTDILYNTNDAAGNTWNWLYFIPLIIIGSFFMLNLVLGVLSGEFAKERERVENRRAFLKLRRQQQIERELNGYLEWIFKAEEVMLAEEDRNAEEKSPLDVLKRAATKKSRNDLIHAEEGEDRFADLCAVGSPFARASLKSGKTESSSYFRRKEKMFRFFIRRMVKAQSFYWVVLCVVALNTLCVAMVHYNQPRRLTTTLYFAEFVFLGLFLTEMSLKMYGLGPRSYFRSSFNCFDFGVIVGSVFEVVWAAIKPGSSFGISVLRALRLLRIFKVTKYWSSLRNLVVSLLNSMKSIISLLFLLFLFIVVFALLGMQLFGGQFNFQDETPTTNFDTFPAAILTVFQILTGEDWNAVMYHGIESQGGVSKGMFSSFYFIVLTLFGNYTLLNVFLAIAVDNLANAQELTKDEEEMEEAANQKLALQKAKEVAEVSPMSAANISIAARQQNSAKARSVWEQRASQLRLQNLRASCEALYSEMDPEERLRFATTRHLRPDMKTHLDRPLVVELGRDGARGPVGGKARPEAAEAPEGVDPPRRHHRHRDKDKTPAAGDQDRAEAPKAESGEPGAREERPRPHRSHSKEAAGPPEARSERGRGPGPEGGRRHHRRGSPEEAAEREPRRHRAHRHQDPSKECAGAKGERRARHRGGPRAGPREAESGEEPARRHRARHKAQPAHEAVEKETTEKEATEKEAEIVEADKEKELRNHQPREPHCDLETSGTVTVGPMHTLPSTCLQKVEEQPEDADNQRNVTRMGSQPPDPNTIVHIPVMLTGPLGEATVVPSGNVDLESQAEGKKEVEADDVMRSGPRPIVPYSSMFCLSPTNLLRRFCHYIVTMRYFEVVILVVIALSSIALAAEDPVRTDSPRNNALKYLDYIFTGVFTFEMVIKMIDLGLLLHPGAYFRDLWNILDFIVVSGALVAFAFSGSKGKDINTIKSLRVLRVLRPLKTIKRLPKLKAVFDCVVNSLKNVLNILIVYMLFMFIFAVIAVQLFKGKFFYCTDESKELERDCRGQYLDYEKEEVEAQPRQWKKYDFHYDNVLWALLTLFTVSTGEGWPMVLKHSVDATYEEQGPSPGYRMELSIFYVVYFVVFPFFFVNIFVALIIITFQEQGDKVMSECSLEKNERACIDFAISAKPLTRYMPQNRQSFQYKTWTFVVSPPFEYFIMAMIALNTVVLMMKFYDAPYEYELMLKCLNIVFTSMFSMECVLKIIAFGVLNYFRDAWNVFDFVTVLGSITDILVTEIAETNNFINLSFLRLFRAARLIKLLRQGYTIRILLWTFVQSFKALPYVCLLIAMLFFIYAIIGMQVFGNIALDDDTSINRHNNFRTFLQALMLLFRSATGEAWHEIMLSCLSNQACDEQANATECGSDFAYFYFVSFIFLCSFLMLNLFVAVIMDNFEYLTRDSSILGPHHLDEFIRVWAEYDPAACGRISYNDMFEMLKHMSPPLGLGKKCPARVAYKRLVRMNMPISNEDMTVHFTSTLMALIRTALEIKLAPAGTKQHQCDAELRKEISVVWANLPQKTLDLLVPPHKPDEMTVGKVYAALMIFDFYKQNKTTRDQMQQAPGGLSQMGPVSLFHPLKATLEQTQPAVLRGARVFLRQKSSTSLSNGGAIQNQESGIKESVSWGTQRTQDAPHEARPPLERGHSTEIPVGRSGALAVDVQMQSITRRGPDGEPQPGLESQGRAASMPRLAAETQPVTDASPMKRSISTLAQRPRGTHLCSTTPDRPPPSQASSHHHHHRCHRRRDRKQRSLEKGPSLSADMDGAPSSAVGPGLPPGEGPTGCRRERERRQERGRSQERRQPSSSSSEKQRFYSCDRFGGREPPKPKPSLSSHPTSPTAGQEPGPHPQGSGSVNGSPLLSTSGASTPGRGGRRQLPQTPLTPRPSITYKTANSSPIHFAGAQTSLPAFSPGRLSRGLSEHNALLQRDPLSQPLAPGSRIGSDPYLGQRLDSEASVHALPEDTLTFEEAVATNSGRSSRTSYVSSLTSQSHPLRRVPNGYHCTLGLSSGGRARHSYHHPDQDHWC
T5 sequence (Q02410 whole entry): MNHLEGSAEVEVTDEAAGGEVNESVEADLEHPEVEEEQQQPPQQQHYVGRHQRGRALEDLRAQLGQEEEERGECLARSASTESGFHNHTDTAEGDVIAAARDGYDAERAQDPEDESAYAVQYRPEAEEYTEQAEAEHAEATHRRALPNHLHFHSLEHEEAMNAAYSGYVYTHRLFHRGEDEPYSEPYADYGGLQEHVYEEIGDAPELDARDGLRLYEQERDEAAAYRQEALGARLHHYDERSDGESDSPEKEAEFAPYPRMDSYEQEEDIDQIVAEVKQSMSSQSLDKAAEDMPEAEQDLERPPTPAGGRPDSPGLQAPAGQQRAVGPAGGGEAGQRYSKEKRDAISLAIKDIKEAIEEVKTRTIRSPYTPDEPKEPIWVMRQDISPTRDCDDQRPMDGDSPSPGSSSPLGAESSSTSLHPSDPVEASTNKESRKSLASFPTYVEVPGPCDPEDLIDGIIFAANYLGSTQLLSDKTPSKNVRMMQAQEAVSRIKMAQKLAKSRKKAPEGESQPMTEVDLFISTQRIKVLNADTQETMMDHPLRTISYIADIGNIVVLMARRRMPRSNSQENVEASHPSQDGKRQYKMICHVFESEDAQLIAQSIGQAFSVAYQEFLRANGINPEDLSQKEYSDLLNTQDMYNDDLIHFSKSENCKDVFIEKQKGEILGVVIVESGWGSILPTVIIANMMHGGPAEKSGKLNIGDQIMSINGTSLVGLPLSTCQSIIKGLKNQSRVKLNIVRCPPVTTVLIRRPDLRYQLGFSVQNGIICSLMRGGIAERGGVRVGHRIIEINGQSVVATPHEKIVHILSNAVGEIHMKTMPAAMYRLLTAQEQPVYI

[28] = biological target: T5, Voltage-gated N-type calcium channel alpha-1B subunit/Amyloid beta A4 precursor protein-binding family A member 1; assay type: protein assay; remark: listed apart in the source

With `Nc1nc2ccccc2n1Cc1ccc(Cl)cc1` the IC50 (Interleukin-8 [1]) was 12.1 µM (active), the IC50 (Interleukin-8 [2]) was 19.8 µM (active) and the IC50 (Tumor necrosis factor) was 8.92 µM (active) and > 20 µM (inactive).

In the case of `CCC(C)c1ccc(NC(=S)Nc2cccnc2)cc1` (centres undefined), the EC50 [3] is reported as 12.6 µM (active).

With `COc1cc(O)c(C(C)=O)c(CC(=O)O)c1` the IC50 [4] was 15.6 µM (inactive), the AC50 (ORF 73) was 46.3 µM (active) and the IC50 [5] was 3.5 µM (active).

With `Cc1nc2ccc(NC(=O)C3COc4ccccc4O3)cc2s1` (centres undefined) the IC50 [6] was 6.32 µM (active), the IC50 [7] was > 100 µM (inactive) and the IC50 [8] was 11.1 µM (active). For the same compound, the IC50 [9] was 6.02 µM (active).

In the case of `Cc1ccc(NC(=O)Nc2cccnc2)cc1F`, the EC50 [3] is reported as 9.14 µM (active).

In the case of `COc1ccc(C2(O)CC3CCC(C2)N3c2cc(C)nc(-c3ccccc3)n2)cc1` (centres undefined), the EC50 [10] is reported as > 20 µM (not active), the EC50 [11] is reported as > 20 µM (not active) and the EC50 [12] is reported as 7.35 µM (active).

In the case of `Cc1ccc(C)c(S(=O)(=O)NC2CCSC2=O)c1` (centres undefined), the AC50 [13] is reported as 3.22 µM (active).

In the case of `CC(=O)[C@@H]1[C@H]2[C@@H](C(=O)[C@H]3OC[C@H]2O3)[C@@H]2C=Cc3ccccc3N12`, the AC50 (Cytochrome P450 2D6) is reported as 39.8 µM (inconclusive) and the AC50 (Cytochrome P450 2C9) is reported as 31.6 µM (inconclusive).

In the case of `COc1ccc(-c2cc(=O)c3ccc(O)cc3o2)cc1`, the AC50 (Cytochrome P450 2C9) is reported as 3.98 µM (inconclusive).

In the case of `C/C(=N\Nc1nc2c(s1)CCCC2)c1ccc(Cl)cc1`, the AC50 (HeLa) is reported as 83.5 µM (active).

In the case of `C/C(=N\NC(=O)c1ccc(Cl)cc1)c1ccccn1`, the CC50 [14] is reported as 6.87 µM (active), the EC50 [15] is reported as 1.04 µM (active) and the IC50 (cells [16]) is reported as 0.8 µM (active). The EC50 [17] was 2.33 µM (active), the EC50 (cells [18]) was 0.064 µM (active) and the CC50 [19] was 1.52 µM (active). For the same compound, the IC50 [20] was 0.546 µM (active), the CC50 [21] was 0.551 µM (active) and the EC50 (Streptococcus) was 7.47 µM (active). The AC50 (INS1) was 0.34 µM (active) and the EC50 [22] was < 0.1 µM (active).

With `Cc1cc(Cl)ccc1/N=c1\ssnc1Cl` the IC50 [23] was 11.9 µM (active), the IC50 [24] was > 100 µM (inactive) and the IC50 [25] was > 64 µM (inactive). The EC50 (Vasopressin V1a receptor) was > 29.9 µM (not active), the EC50 [26] was 49 µM (active) and the EC50 (Oxytocin receptor) was > 29.9 µM (not active). The IC50 [27] was 2.3 µM (active) and the IC50 [28] was 15.4 µM (active).
